The results in this text go back to PMC8910733, “Cyclin-Dependent Kinases (CDKs) and the Human Cytomegalovirus-Encoded CDK Ortholog pUL97 Represent Highly Attractive Targets for Synergistic Drug Combinations” (International Journal of Molecular Sciences, 2022).

Series [1] concerns mock-infected primary human foreskin fibroblasts (HFFs). As to the kind of experiment: neutral red assay (NRA), drug-induced cytotoxicity. The class given is cell-based. The settings on record: single treatment; mock-infected HFFs, 7 d; mean ± SD. As for the experimental part:
(§1) Drug induced cytotoxicity in HFFs was measured as a reduction of cell viability determined by neutral red uptake assay (NRA), as described previously. Briefly, HFFs treated with compounds for 7 d were incubated with a final concentration of 40 μg/mL neutral red (Sigma Aldrich, St. Louis, MO, USA) for 3 h. Incorporated neutral red was released from the cells by incubation with destaining solution (50% ethanol, 49% H2O, 1% acetic acid) and subsequently quantitated in a microplate reader (PerkinElmer, Waltham, MA, USA) by fluorescence measurement using 560/630 nm for excitation/emission, respectively.

A short description of series [2]: neutral red assay (NRA), drug-induced cytotoxicity. In kind it is cell-based, human. The settings on record: human. As for the experimental part:
as §1

The test system of series [3] is HCMV AD169-GFP. The settings on record: for SI: selectivity index CC50/EC50.
Method: (§2) Primary human foreskin fibroblasts (HFFs, derived from clinical samples, Children’s Hospital, Erlangen, Germany) were grown in Eagle’s minimal essential medium (MEM) supplemented with 1 × GlutaMAX^TM (both Thermo Fisher Scientific, Waltham, MA, USA), 10 μg/mL gentamicin and 10% fetal bovine serum (FBS, Capricorn, Ebsdorfergrund, Germany). […] Cultured cells were maintained at 37 °C, 5% CO2 and 80% humidity. All cell culture was regularly monitored for absence of mycoplasma contamination (Lonza™ Mycoalert™, Thermo Fisher Scientific, Waltham, MA, USA). Recombinant HCMV AD169 expressing green fluorescent protein (AD169-GFP, [61]) and recombinant ORF-UL97-deleted HCMV AD169 expressing green fluorescent protein (ΔUL97-GFP BAC213 [48]) were used for in vitro replication assays.
(§3) Loewe additivity was assessed using an adapted protocol of the HCMV GFP-based replication assay [21, 61] described previously [1]. HFFs were seeded at app. 1.6 × 10^5 cells/well in 12-well culture plates (four plates per assay) and infected on the following day with HCMV AD169-GFP [61] in a dilution resulting in 25% GFP-positive cells at 7 d p.i. (i.e., 1× TCID25^7d). […] Standard protocol comprised a serial dilution of six concentrations/single compound, starting with app. 4–8 × EC50, and a 1:2 serial dilution of eight concentrations of the combination, starting with a combination of half of the highest concentrations of both single dilution series. All infections were performed in biological duplicates. Cells were lysed by the addition of 200 µL lysis buffer/well 7 d p.i., and cell suspensions were mixed and transferred to a 96-well plate. Centrifugation was performed at 3000 rpm for 15 min and clear lysates were subjected to automated GFP quantitation in a Victor X4 microplate reader (PerkinElmer, Waltham, MA, USA). Antiviral efficacy (mean of duplicate measurement of biological duplicates) was expressed as the percentage of solvent control and entered into the CompuSyn software (Version 1.0 [65]; ComboSyn, Inc., Paramus, NJ, USA). Only experiments with an r value > 0.90 and EC50 values close to previously determined concentrations were accepted.
Series [4] deals with HCMV AD169-GFP. As to the kind of experiment: antiviral drug treatment in cyclin H knock-out HFFs. The settings on record: CycH KO HFFs.
Method: (§4) To achieve a transient knock-out of cyclin H, app. 1.5 × 10^5 HFFs/well were grown in 12-well culture plates and, starting the following day, incubated for 24 h with 0.5 mL of lentiviral supernatant (a mixture containing all six gRNAs described in 4.9) supplemented with 0.5 mL MEM and 7.5 µg/mL polybrene (Sigma Aldrich, St. Louis, MO, USA) per well. Virus supernatant was replaced by fresh media 24 h later and cells were used for infection experiments (see 4.5 and 4.6) on the following day.
(§5) 12-well culture plates and treated with lentiviral supernatants to achieve a CRISPR/C as9 -media ted
(§6) transient cyclin H knock-down. Subsequently, cells were dir ectly infected with HCMV AD169-GF P for
(§7) 90 min , then fresh medium, supplemented with indicated concentrations of compounds, was added. Cells
(§8) were harvested and lysed 7 d pos t-infection and vira l GFP reporter signa ls were measured in
(§9) quadruplicate. Data are presented as mean values of biological duplicates, adjusted in percent to the
(§10) respective solvent DMSO c on t r ol (ctrl ).
Another series has as its system HCMV ΔUL97-GFP BAC213. Put plainly: GFP replication assay with deletion mutant.
The test system of series [5] is HCMV AD169-GFP. As to the kind of experiment: confocal quantitation of GFP reporter signal in HFFs. The conditions noted are these: MBV 10 µM, LDC4297 0.1 µM, R25 1 µM, abemaciclib 1 µM; untreated infected = 100%, mock = 0%.
Series [6] has as its system HCMV AD169-GFP. As to the kind of experiment: antiviral drug treatment in wild-type HFFs. The settings on record: WT HFFs.
Method: as §4, §5, §6, §7, §8, §9, §10
Another series has as its system CDK7. As to the kind of experiment: confocal immunofluorescence quantitation of CDK7 signal in HFFs. The conditions noted are these: HCMV AD169-GFP-infected HFFs, 7 d; MBV 10 µM, LDC4297 0.1 µM, R25 1 µM, abemaciclib 1 µM; untreated mock-infected = 100%; mean ± SEM.
Series [7] relates to HCMV AD169-GFP. Put plainly: Loewe additivity fixed-dose assay.
Method: as §3
In series [8] the test system is HCMV AD169-GFP. As to the kind of experiment: microbe, parasite or virus in culture.
Method: as §2, §3
Setting [9] is: mock-infected primary human foreskin fibroblasts (HFFs), single treatment, mock-infected HFFs, 7 d, mean ± SD, read-out: CC50.
Where [10] appears, read: Human betaherpesvirus 5, AD169, single treatment, HCMV AD169-GFP in HFFs, mean ± SD.

Where “and” joins values, the source holds several entries; their conditions need not be identical. Identical values can stand only once. Like-named read-outs stand apart in the source and are kept apart here. Bounds are passed on as bounds.

Method for HCMV ΔUL97-GFP BAC213: Primary human foreskin fibroblasts (HFFs, derived from clinical samples, Children’s Hospital, Erlangen, Germany) were grown in Eagle’s minimal essential medium (MEM) supplemented with 1 × GlutaMAX^TM (both Thermo Fisher Scientific, Waltham, MA, USA), 10 μg/mL gentamicin and 10% fetal bovine serum (FBS, Capricorn, Ebsdorfergrund, Germany). […] Cultured cells were maintained at 37 °C, 5% CO2 and 80% humidity. All cell culture was regularly monitored for absence of mycoplasma contamination (Lonza™ Mycoalert™, Thermo Fisher Scientific, Waltham, MA, USA). […]
Loewe additivity was assessed using an adapted protocol of the HCMV GFP-based replication assay [21, 61] described previously [1]. […] Centrifugation was performed at 3000 rpm for 15 min and clear lysates were subjected to automated GFP quantitation in a Victor X4 microplate reader (PerkinElmer, Waltham, MA, USA). Antiviral efficacy (mean of duplicate measurement of biological duplicates) was expressed as the percentage of solvent control and entered into the CompuSyn software (Version 1.0 [65]; ComboSyn, Inc., Paramus, NJ, USA). Only experiments with an r value > 0.90 and EC50 values close to previously determined concentrations were accepted.

Broadly, the CC50 is the concentration that lowers cell viability or growth by half. In the case of SY1365, the CC50 in series [1] is under 0.1 µM.

As for `CC[C@H](Nc1nc(NCc2cnc(C)cc2C)c2ncn(C(C)C)c2n1)[C@@H](C)O` [CYC065], the CC50 at 7 d in [2] (setting [9]) is under 0.1 µM.

Broadly, the EC50 is the midpoint of the concentration-response curve. A word on the EC90: it is the concentration needed for an effect of 90%. Turning to `CC(C)c1cnn2c(NCc3ccccc3-n3cccn3)nc(OC3CCCNC3)nc12` (stereo not shown) [LDC4297], the concentration for a half-maximal effect (EC50) in the series with HCMV AD169-GFP [3] (parental HCMV AD169-GFP, in parallel with ΔUL97 mutant (Figure 5A)) is 0.016 ± 0.005 µM; with HCMV AD169-GFP [3] (single treatment, HCMV AD169-GFP in HFFs, mean ± SD) it was 0.009 ± 0.002 µM; in the series with HCMV ΔUL97-GFP BAC213 (deletion mutant ΔUL97 BAC213 (Figure 5B)), 0.061 ± 0.008 µM; with HCMV AD169-GFP [7] (read-out: EC50 single drugs, single drug, run beside the combination of the same table section) it was 0.013 µM and 0.009 µM and 0.016 µM. In addition, the SI in the series with HCMV AD169-GFP [3] (single treatment) is given as over 1000. The “mean replication (in % solvent control)” value was 85% in the series on HCMV AD169-GFP [4] (0.003 µM); 32% with HCMV AD169-GFP [4] (0.025 µM); 4% with HCMV AD169-GFP [4] (0.1 µM); 91% with HCMV AD169-GFP [6] (0.003 µM); 23% in the series on HCMV AD169-GFP [6] (0.025 µM); 7% in the series with HCMV AD169-GFP [6] (0.1 µM). Further, the “HCMV AD169-GFP-specific reporter signal (GFP intensity)” value in the series with HCMV AD169-GFP [5] is “below 25%”. The CC50 in series [1] was over 10 µM. Besides, the CDK7 intensity in the series with CDK7 is 172% ± 7%. Moreover, in the series with HCMV AD169-GFP [7] (read-out: EC90 single drugs, single drug, run beside the combination of the same table section), the EC90 is 0.097 µM and 0.147 µM and 0.088 µM and 0.124 µM.

As for `Cc1c(Br)c(Br)c2c3c1nc(N1CCNCC1)n3CCC2` [SEL120], the SI in the series on HCMV AD169-GFP [3] (single treatment) is on record as 75. Besides, the EC50 in the series on HCMV AD169-GFP [8] (setting [10]) came to 0.079 ± 0.001 µM. For the same compound, in [2] (setting [9]), the CC50 at 7 d was 5.9 ± 3.85 µM.

For the compound `CC(C)c1cnn2c(NCc3ccccc3)cc(NC[C@H]3CCNC[C@@H]3O)nc12` [samuraciclib], the CC50 at 7 d in [2] (single treatment, mock-infected HFFs, 7 d, mean ± SD, read-out: CC50) was found to be 0.5 ± 0.21 µM.

`CCc1cnn2c(NCc3ccc[n+]([O-])c3)cc(N3CCCC[C@H]3CCO)nc12` [dinaciclib] showed a CC50 at 7 d in [2] of under 0.1 µM.

For `CC(C)(C)c1cnc(CSc2cnc(NC(=O)C3CCN(CC(=O)NCCOCCOCCOCCNc4cccc5c4C(=O)N(C4CCC(=O)NC4=O)C5=O)CC3)s2)o1` (stereo not shown) [THAL-SNS032], the SI with HCMV AD169-GFP [3] (single treatment) amounted to 6. Besides, a half-maximal effect with HCMV AD169-GFP [8] (setting [10]) (EC50) was put at 0.025 ± 0.002 µM. The CC50 at 7 d in [2] (setting [9]) turned out to be 0.14 ± 0.06 µM.

For CVT-313, in series [1], the half-maximal cytotoxic concentration (CC50) worked out at 5.57 ± 0.05 µM.

Take `CN1CCC(c2c(O)cc(O)c3c(=O)cc(-c4ccccc4Cl)oc23)C1CO` (stereo not shown) [riviciclib]: the 50% cytotoxic concentration (CC50) at 7 d in series [2] (setting [9]) turned out to be 1.6 ± 0.06 µM.

Turning to `CC(C)Nc1nc2cc(Cl)c(Cl)cc2n1[C@H]1O[C@@H](CO)[C@H](O)[C@@H]1O` [MBV, maribavir], the SI in the series on HCMV AD169-GFP [3] (single treatment) is reported as over 250. Besides, the EC50 with HCMV AD169-GFP [8] (Human betaherpesvirus 5, AD169, parental HCMV AD169-GFP, in parallel with ΔUL97 mutant (Figure 5A)) was 0.22 ± 0.26 µM; in the series with HCMV AD169-GFP [8] (setting [10]), 0.35 ± 0.42 µM; with HCMV ΔUL97-GFP BAC213 (Human betaherpesvirus 5), over 20 µM. Further, the “mean replication (in % solvent control)” value in the series on HCMV AD169-GFP [4] (0.31 µM) is 21%; in the series on HCMV AD169-GFP [4] (2.5 µM) it was 9%; in the series with HCMV AD169-GFP [4] (10 µM) it was 6%; in the series with HCMV AD169-GFP [6] (0.31 µM), 20%; in the series on HCMV AD169-GFP [6] (2.5 µM), 6%; in the series on HCMV AD169-GFP [6] (10 µM), 3%. Also, the “HCMV AD169-GFP-specific reporter signal (GFP intensity)” value with HCMV AD169-GFP [5] is listed as “below 25%”. Besides, the CC50 at 7 d in series [2] (setting [9]) is over 100 µM.

Consider `CC(=O)N[C@@H]1CCC[C@H](C(=O)Nc2cc(-c3cnn4c3CC(C)(C)C4)c(Cl)cn2)C1` [AZD4573], for which, in [2] (setting [9]), the CC50 at 7 d worked out at 0.35 ± 0.09 µM.
